# Laboratory results from patent publication US20250221987A1, “PIPERAZINO RING-CONTAINING DERIVATIVE, PHARMACEUTICALLY ACCEPTABLE SALT THEREOF, PREPARATION METHOD THEREFOR, AND APPLICATION THEREOF” (ACERAND THERAPEUTICS (HONG KONG) LIMITED, priority 2022, published 2025).
# Read-outs that look alike come from different tables or passages of the source.
# How the values were obtained:
# [1] = Pharmacokinetic study in ICR (CD-1) mice; type: in vivo; conditions: male ICR (CD-1) mice, tail vein 1 mg/kg, oral 3 mg/kg groups, plasma; for half-life: mouse, read-out: Half-life t1/2 (converted)
# Procedure: ICR (CD-1) male mice, 3 mice per group. One group of mice was injected with the compound to be tested via the tail vein at a dose of 1 mg/kg. The other group of mice was administered the compound to be tested via single-dose oral administration at a dose of 3 mg/kg. In the tail vein injection group, blood was collected from the saphenous vein at 5 minutes, 15 minutes, 30 minutes, 1 hour, 2 hours, 4 hours, 8 hours, and 24 hours post-administration. In the single-dose oral administration group, blood was collected at 15 minutes, 30 minutes, 1 hour, 2 hours, 4 hours, 8 hours, and 24 hours post-administration. The collected blood was placed in an EDTA-K2 anticoagulant tube, and 30 μL of whole blood was collected at each time point. Immediately after collection, blood samples were placed on wet ice for centrifugation. Samples would be centrifuged (maintained at 4600 rpm for 5 minutes at 4° C.) within 30 minutes to obtain plasma. The plasma sample was placed into a test tube (a target of 12 to 20 μL) for analysis. […] of plasma was added with 5 μL of MeOH, then added with 200 μL of MeOH/ACN solution containing 5 ng/mL of ISTD (Terfenadine), mixed well with shaking, and centrifuged at 4000 rpm for 15 minutes. The supernatant was diluted 5-fold with MeOH/water (1:1, v/v, 0.1% FA), and loaded to LC-MS/MS for quantification of plasma concentration by analytical methods and calculation of pharmacokinetic parameters.
# PARP1 = PARP1 (Homo sapiens (Human), UniProt P09874); test: PARP1 enzymatic activity assay; type: biochemical; conditions: for IC50: final PARP1 0.02 nM, DNA 0.8 nM, NAD+ 3.5 μM, 60 minutes; for PARP1/PARP2 inhibition Selectivity multiple N (N = IC50 (PARP2)/IC50 (PARP1)): ratio IC50 (PARP2)/IC50 (PARP1)
# Procedure: 2) After the coating was completed, the coating buffer was discarded.
# After washing, the blocking buffer was discarded.
# 4) 1000× compound was prepared. 1 μL of compound was transferred to a 96-well plate containing 199 μL of reaction buffer (50 mM Tris-HCl (pH 7.5), 0.005% Tween-20, 0.01% BSA) and mixed well.
# 5) 25/10×PARP1-DNA solution was prepared with reaction buffer.
# 6) 25/10×NAD+ solution was prepared with reaction buffer.
# 8) Primary antibody was 2000-fold diluted with the blocking buffer. 20 μL of primary antibody was added to the reaction plate, which was incubated at room temperature for 1.5 hours.
# 9) The primary antibody was discarded.
# 10) Secondary antibody was 2000-fold diluted with the blocking buffer.
# 11) The secondary antibody was discarded.
# The chemiluminescence value RLU was read with Envision.
# PARP2 = PARP2 (Homo sapiens (Human), UniProt Q9UGN5); test: PARP2 enzymatic activity assay; type: biochemical; conditions: Biotin-NAD+ 2 μM, 60 minutes
# MDA-MB-436 cells = test: Proliferation activity assay of MDA-MB-436 cells (CellTiter-Glo); type: cell-based; conditions: 4000 cells seeded, 6 days incubation, read-out: MDA-MB-436 proliferation inhibition IC50
# Procedure: Complete culture medium was prepared and mixed thoroughly. The cells were resuscitated and cultured for about two passages to select a cell line in good growth condition. The cell culture flask was removed from the incubator. Cell adherence: the culture medium was aspirated, then the cells were washed once with trypsin to discard the waste liquid, and 3 mL of fresh trypsin was added to the culture flask for digestion. When the cells were loose to be detached from the wall of the flask, 8 mL of complete culture medium was added thereto to stop trypsin digestion and mixed gently. The cell suspension was transferred to a centrifuge tube with a pipette and centrifuged at 1000 rpm for 5 minutes. The supernatant was discarded. An appropriate volume of culture medium was added to the centrifuge tube and pipetted gently to resuspend the cells evenly. The cells were counted using a Vi-Cell XR cell counter. The cell suspension was adjusted to an appropriate concentration. The cell suspension was added to a 96-well plate at 100 µL/well. The details such as cell name, seeding density, and date were labelled, and the culture plate was placed in a CO2 incubator overnight.
# The compound to be tested was prepared into a 10 mM stock solution, which was aliquoted and stored in a −20° C. freezer. The compound solution was added to a 96-well plate using HPD300. The plate was incubated in a CO2 incubator for a total of 6 days.
# CellTiter-Glo buffer was melted at room temperature. The lyophilized CellTiter-Glo substrate was equilibrated to room temperature. CellTiter-Glo buffer was added to the CellTiter Glo substrate and mixed thoroughly. A cell plate was taken out and equilibrated to room temperature. 100 μL of mixed CellTiter Glo reagent was added to each well, and the mixture was shaken in the dark for 10 minutes, followed by incubation for 20 minutes. The culture plate was placed into an Enspire reading plate, and the luminescence reading results were recorded. […] A pharmacodynamic inhibition rate curve was plotted by using XLFit, and the IC50 value was calculated. The 4-parameter model [fit=(A+((B−A)/(1+((C/x)^D)))] was used.
# [2] = Homo sapiens, MDA-MB-436, 144 h
# Sequence of PARP1 (P09874 whole entry): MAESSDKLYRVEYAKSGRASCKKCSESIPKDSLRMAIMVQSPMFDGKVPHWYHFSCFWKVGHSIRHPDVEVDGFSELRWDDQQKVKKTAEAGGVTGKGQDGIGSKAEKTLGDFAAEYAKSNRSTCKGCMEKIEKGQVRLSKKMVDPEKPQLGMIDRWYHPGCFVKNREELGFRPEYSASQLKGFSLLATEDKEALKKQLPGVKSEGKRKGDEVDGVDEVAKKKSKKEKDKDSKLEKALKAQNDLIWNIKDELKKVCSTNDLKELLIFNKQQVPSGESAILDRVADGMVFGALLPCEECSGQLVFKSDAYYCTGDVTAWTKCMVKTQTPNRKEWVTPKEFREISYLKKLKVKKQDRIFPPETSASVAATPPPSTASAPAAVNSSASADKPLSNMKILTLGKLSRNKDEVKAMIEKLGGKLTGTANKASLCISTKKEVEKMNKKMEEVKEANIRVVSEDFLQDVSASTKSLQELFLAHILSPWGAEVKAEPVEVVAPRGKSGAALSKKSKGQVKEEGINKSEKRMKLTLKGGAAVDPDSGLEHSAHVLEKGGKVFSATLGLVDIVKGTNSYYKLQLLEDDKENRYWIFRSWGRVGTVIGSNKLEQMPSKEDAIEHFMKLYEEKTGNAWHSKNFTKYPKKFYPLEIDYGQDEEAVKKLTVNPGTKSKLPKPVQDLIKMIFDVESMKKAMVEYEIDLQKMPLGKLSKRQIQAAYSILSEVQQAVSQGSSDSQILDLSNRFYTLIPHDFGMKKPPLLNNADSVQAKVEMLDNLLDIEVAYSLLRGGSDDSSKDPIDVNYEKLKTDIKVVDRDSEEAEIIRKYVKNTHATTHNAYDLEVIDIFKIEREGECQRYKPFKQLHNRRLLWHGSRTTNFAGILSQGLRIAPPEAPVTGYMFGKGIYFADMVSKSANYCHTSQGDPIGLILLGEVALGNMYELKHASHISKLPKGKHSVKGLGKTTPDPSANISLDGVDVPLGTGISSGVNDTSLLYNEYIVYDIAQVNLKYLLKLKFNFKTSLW
# Sequence of PARP2 (Q9UGN5 whole entry): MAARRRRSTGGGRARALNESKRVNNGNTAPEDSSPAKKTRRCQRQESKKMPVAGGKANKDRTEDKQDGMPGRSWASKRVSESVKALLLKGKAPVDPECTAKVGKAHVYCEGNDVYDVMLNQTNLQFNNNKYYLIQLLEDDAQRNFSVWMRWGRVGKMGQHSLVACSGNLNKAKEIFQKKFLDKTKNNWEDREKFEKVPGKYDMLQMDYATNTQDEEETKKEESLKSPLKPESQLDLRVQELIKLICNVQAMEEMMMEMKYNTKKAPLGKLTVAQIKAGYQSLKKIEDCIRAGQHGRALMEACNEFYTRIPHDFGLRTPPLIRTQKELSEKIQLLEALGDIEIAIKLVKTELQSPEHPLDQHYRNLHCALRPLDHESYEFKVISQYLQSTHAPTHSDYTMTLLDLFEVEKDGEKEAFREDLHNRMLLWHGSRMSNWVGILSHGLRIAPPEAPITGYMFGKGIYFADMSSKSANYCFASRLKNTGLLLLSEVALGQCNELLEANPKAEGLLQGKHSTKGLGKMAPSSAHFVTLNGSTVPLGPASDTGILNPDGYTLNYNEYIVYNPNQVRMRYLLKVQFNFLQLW
SMILES,Clearance [1],half-life [1],Half-life t1/2 [1],IC50 (PARP1),PARP1/PARP2 inhibition Selectivity multiple N (N = IC50 (PARP2)/IC50 (PARP1)) (PARP1),IC50 (PARP2; final PARP2 […]),IC50 (MDA-MB-436 cells),IC50 (PARP2; final PARP2 1.5 nM),IC50 (MDA-MB-436 cells; [2])
"CCc1cc2ncc(CN3CCN(c4ccc(C(=O)NC)nc4)CC3)cc2[nH]c1=O [AZD5305, reference compound]",10.3 mL/h/kg,8.04 h,–,–,–,–,–,–,–
"CCc1cc2ncc(CN3CCN(c4ccc(C(=O)NC)nc4)[C@@H]4CC[C@@H]43)cc2[nH]c1=O [Example 2-2, 5-((1R,6S)-5-((7-ethyl-6-carbonyl-5,6-dihydro-1,5-naphthyridin-3-yl)methyl)-2,5-diazabicyclo[4.2.0]octan-2-yl)-N-methylpyridine-2-carboxamide]",1.74 mL/h/kg,–,57.9 h,0.6 nM,71,46.4 nM,1 nM,–,–
"CNC(=O)c1ccc(N2CCN(Cc3cnc4c5c(c(=O)[nH]c4c3)CCC5)[C@H]3CC[C@H]32)cn1 [Example 12-2, N-methyl-5-[(1R,6S)-5-((6-oxo-5H,7H,8H,9H-cyclopenta[c][1,5]naphthyridin-3-yl)methyl)-2,5-diazabicyclo[4.2.0]octan-2-yl]pyridine-2-carboxamide]",1.92 mL/h/kg,41.3 h,–,0.5 nM,120,–,–,60 nM,2 nM
"CNC(=O)c1ccc(N2CCN(Cc3cnc4cc(C(F)(F)F)c(=O)[nH]c4c3)[C@H]3CC[C@H]32)cn1 [Example 30-2, N-methyl-5-((1R,6S)-5-((6-oxo-7-(trifluoromethyl)-5,6-dihydro-1,5-naphthyridin-3-yl)methyl)-2,5-diazabicyclo[4.2.0]octan-2-yl)picolinamide]",1.62 mL/h/kg,47.6 h,–,1.2 nM,39,–,–,47 nM,1 nM
"CNC(=O)c1ccc(N2CCN(Cc3cnc4c5c(c(=O)[nH]c4c3)OCCC5)[C@@H]3CC[C@@H]32)cn1 [Example 31-1, N-methyl-5-((1S,6R)-5-((6-oxo-6,8,9,10-tetrahydro-5H-pyrano[2,3-c][1,5]naphthyridin-3-yl)methyl)-2,5-diazabicyclo[4.2.0]octan-2-yl)picolinamide]",–,–,–,0.3 nM,303,–,–,91 nM,3 nM
